US20250221957A1, “PS[…] AND THEIR USE FOR TREATING […] AND NE[…] DISORDERS” (Transcend Therapeutics, Inc., priority 2021, published 2025)

Assays:
[1] = target: serotonin transporter (Homo sapiens, UniProt P31645); details: cited from earlier work
[2] = tested on: drug users / humans; details: methylone 50 mg in humans (Poyatos 2022); cited from earlier work
[3] = target: serotonin (5HT) transporter (Homo sapiens, UniProt P31645); experiment: Radioligand binding, [3H] citalopram
[4] = tested on: 168 GPCRs; experiment: DiscoverX PathHunter β-arrestin GPCR screen, agonist and antagonist mode; format: cell-based; details: 1 and 10 micromolar
Description: For agonist determination, cells were incubated with sample to induce response. […] Vehicle concentration was 1%.
Vehicle concentration was 1%.

[5] = tested on: patients with a primary diagnosis of PTSD; experiment: Methylone PTSD case series with long-term follow-up (Example 5): CGI-I and safety; format: in vivo, human
Text: The patients were not given structured psychotherapy in conjunction with methylone treatment, which differs from recent studies of MDMA that emphasize the importance of a manualized psychedelic-assisted psychotherapy model.
No protectedhealth information was disclosed, and no consent was obtained from patients for use of their archival data. Case narratives were systematically compiled from data collected as part of routine clinical work. Diagnoses were confirmed by an experienced clinician using semi-structured interviews. Baseline symptom severity was evaluated using the Clinical Global Impressions Scale-Severity ([…]). Symptom improvement was evaluated using the Clinical Global Impressions Scale-Improvement (CGI-I) following dosing. […] Because these case narratives were examined retrospectively from routine clinical care records, and not gathered prospectively in a research study, more specific validated rating scales for assessing PTSD symptoms were not available. Additionally, follow-up varied, with the length of follow-up ranging from one week (Case 2) to 15 years (Case 16).
Dosing summary: Methylone was administered orally. Other medications were not changed during methylone treatment. […] In several cases, treatment was continued and, in some cases, the dose was further escalated in later sessions (see Table 5). Booster doses were included for 19 patients in one or more of the sessions. Starting doses were between 100 and 270 mg, and these as well as booster doses were selected based on clinical judgement.

[6] = target: T1, serotonin transporter (SERT) (Rattus norvegicus, UniProt P31652); experiment: [3H]5HT uptake saturation in rat brain synaptosomes with or without methylone; format: biochemical
T1 construct: from tissue; host or cells: rat brain synaptosomes
T1 sequence (P31652 whole entry): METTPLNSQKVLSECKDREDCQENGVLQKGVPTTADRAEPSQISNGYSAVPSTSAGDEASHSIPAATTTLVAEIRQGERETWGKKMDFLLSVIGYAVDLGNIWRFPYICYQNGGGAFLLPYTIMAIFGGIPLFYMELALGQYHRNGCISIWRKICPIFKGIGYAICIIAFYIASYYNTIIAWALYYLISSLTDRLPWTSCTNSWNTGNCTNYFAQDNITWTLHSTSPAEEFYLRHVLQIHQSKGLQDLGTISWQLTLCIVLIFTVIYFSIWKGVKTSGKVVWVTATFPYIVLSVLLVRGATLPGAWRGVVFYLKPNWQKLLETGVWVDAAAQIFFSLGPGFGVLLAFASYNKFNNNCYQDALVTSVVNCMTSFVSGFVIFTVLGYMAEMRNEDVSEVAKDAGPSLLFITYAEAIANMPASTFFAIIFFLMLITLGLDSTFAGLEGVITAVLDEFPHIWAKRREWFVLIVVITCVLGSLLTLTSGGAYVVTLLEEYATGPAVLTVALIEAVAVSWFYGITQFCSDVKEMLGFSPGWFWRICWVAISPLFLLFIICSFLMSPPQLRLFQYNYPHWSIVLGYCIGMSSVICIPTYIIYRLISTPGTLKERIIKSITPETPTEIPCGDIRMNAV

[7] = tested on: Sprague Dawley rats; experiment: Forced Swim Test (FST); format: in vivo, rat; details: for reduction in immobility compared to saline vehicle: single dose 30 min prior to testing (Example 6)
Text: The Forced Swim Test (FST) is a classic, and the most used preclinical behavioral assay to screen compounds with antidepressant-like activity and has high predictive and face validity (Porsolt et al. (1977) Nature 266:730; Borsini and Meli (1988) Psychopharmacology 94:147). The premise of the FST is that when rats are placed into a cylinder filled with water, they will initially try to escape, but over time will become immobile. This increased immobility reflects behavioral despair, modeling a depressive-like state.
Animals: Male Sprague Dawley rats (Charles River Laboratories) weighing 180-200 g on arrival, were used for this study which took place at Melior Discovery (Exton, PA). Rats acclimated to their home cages for at least one week before testing, were maintained in a controlled environment on a 12 h light/dark cycle, with no more than 2 rats per cage. Animals received ad libitum access to food and water and were assigned randomly to treatment groups. Animal use and procedures were in accordance with established protocols approved by the IACUC committee, Melior Standard Operation Procedures (SOP), and Transcend Therapeutics.
Forced Swim Test (FST): In the FST trial, rats were be placed in a circular plexiglass container filled with water, with no means of escape. Water temperature was maintained at 22-25° C. and changed for every animal. After an acclimation period, rats were timed for inactivity (failure to struggle), activity, swim time and climbing time. Day 1 consisted of a 15 min acclimation trial, and Day 2 (24 h later) consisted of the 5 min test. A time sampling procedure was employed where animals were observed every 5 sec and scored for immobility, swimming, or climbing. Fluoxetine (10 mg/kg, IP, Sigma Aldrich) or 0.9% sterile saline vehicle (vehicle 3× group) were administered 23.5, 5, and 1 h before testing in the FST. […] The experimenter was blinded to treatment.
Statistical Analysis: Data for each parameter of the test (immobility, swimming, or climbing) is expressed as the mean±SEM. Differences between groups were determined by one-way ANOVA and post-hoc Tukey's test with a p-value of less than 0.05 indicating statistically significant differences.
Forced Swim Test: In the FST trial, rats were be placed in a circular plexiglass container filled with water, with no means of escape. Water temperature was maintained at 22-25° C. and changed for every animal. After an acclimation period, rats were timed for inactivity (failure to struggle), activity, swim time and climbing time. Day 1 consisted of a 15 min acclimation trial, and Day 2 (24 h later) consisted of the 5 min test. A time sampling procedure was employed where animals were observed every 5 sec and scored for immobility, swimming, or climbing. Fluoxetine (10 mg/kg, IP, Sigma Aldrich) or 0.9% sterile saline vehicle (vehicle 3× group) were administered 23.5, 5, and 1 h before testing in the FST. 2C-B (2.5, 10, or 20 mg/kg, IP, Cayman Chemical) or 0.9% saline vehicle (vehicle 1× group) were administered 30 min prior to FST testing. The experimenter was blinded to treatment.
Drug Treatment: Fluoxetine (10 mg/kg, IP, Sigma Aldrich) or 0.9% sterile saline vehicle were administered 23.5, 5, and 1 h before testing in the FST. […] Control animals received fluoxetine alone, methylone alone, or saline vehicle.
Forced Swim Test: In the FST trial, rats were be placed in a circular plexiglass container filled with water, with no means of escape. Water temperature was maintained at 22-25° C. and changed for every animal. After an acclimation period, rats were timed for inactivity (failure to struggle), activity, swim time and climbing time. The experimenter and scorer were blind to treatment group. Day 1 consisted of a 15 min acclimation trial, and Day 2 (24 h later) consisted of the 5 min test. A time sampling procedure was employed where animals were observed every 5 sec and scored for immobility, swimming, or climbing. […]

Chain of serotonin transporter (P31645 whole entry): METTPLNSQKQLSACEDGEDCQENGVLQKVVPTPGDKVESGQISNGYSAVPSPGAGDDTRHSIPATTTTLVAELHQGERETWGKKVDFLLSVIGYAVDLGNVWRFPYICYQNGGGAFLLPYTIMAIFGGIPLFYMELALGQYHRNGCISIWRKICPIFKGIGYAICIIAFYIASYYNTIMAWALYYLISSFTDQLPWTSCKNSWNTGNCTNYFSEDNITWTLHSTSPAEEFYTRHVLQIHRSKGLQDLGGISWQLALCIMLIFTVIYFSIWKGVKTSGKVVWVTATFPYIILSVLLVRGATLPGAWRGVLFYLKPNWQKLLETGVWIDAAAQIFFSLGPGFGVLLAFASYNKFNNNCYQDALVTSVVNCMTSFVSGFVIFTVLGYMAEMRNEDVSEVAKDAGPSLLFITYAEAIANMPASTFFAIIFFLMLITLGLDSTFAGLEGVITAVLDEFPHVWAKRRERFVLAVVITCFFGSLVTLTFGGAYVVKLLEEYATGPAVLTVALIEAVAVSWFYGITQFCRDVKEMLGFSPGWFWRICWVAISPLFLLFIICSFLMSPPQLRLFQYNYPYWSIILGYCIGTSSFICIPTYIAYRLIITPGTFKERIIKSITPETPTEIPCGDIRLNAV
Chain of serotonin (5HT) transporter (P31645 whole entry): as above

CNC(C)C(=O)c1ccc2c(c1)OCO2 (centres unmarked) [methylone, 3,4-methylenedioxy-N-methylcathinone]
affinity for the serotonin transporter lower by comparison to MDMA [1]: 3 × | side effects [2]: no detectable side effects | binding at the 5HT transporter [3]: confirmed methylone binding | agonist or antagonist activity (criteria: >30% activity, >50% inhibition) [4]: did not meet criteria for agonist or antagonist activity | patients achieving CGI-I much improved or very much improved ([5]; 21 PTSD patients): 81% | tolerability ([5]; 21 PTSD patients): generally well tolerated | patients reporting a durable effect ([5]; durability captured for 17 of 21 patients): 16 | total adverse events noted ([5]; in three of the 21 patients, none severe): four | patients with durable effect >six months ([5]; in vivo): 11 | patients achieving a CGI-I of 1 or 2 ([5]; of 21 PTSD patients): 17 | patients achieving CGI-I scores of 1 or 2 ([5]; patients who received only a single dose of methylone (n=9)): 89% | patients with initial improvement after the initial session ([5]; patients with multiple methylone dosing sessions (n=12)): 83% | type of interaction at the SERT [6]: competitive | Bmax of [3H]5HT uptake ([6]; in the presence of methylone): no decrease | Kd of [3H]5HT uptake ([6]; in the presence of methylone): right shifted | climbing behavior ([7]; Example 8): significantly increased climbing behavior | reduced immobility compared to vehicle ([7]; Methylone alone, 5 mg/kg IP (Example 8)): 71% | reduced immobility compared to vehicle ([7]; combined treatment: fluoxetine x3 plus Methylone 15 mg/kg IP (Example 8)): 95% | reduction in immobility compared to saline vehicle ([7]; methylone 5 mg/kg IP): 54% | reduction in immobility compared to saline vehicle ([7]; methylone 15 mg/kg IP): 99% | reduction in immobility compared to saline vehicle ([7]; methylone 30 mg/kg IP): 96% | climbing ([7]; methylone 5, 15, 30 mg/kg IP, Example 6): only increased at the lowest dose | swimming ([7]; methylone mid and high doses (15, 30 mg/kg IP), Example 6): significantly increased swimming | reduced immobility vs. vehicle ([7]; single dose of Methylone (5 mg/kg IP) after three prior doses of fluoxetine 10 mg/kg IP (Example 8)): 62% | immobility time ([7]; single doses of 10 and 15 mg/kg methylone IP (Example 11)): reducing immobility time significantly | immobility ([7]; two or three 5 mg/kg doses IP (Example 11)): significantly reduce immobility
